In patent US12521393B2, “Cytotoxicity targeting chimeras for CCR2-expressing cells” (GLAXOSMITHKLINE INTELLECTUAL PROPERTY DEVELOPMENT LIMITED, priority 2021, dated 2026):
Counter-ions that a name gives are not always drawn.

Tested on: endogenous target monocytes in human PBMC
Assay: PBMC ex vivo monocyte depletion flow cytometry assay (Example 200)
Type: cell-based
Conditions: with anti-cotinine antibody (SEQ ID NO: 11/12), 18-24 hours, EC50 in molar, read-out: Ex Vivo Depletion Assay pEC50 (converted)
In short: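 Monocyte depletion is reported as pEC50, averaged or given individually across runs, and read by flow cytometry staining CD45, CD14 and CD4 with a viability dye. Compounds, diluted four-fold over 11 points from 1 mM DMSO stocks, were combined with 30 μg/mL Fc-enhanced anti-cotinine antibody and human PBMC, then incubated 18-24 h at 37° C.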

Compound	EC50 [nM]
CC(C)N(C)[C@@H]1CC[C@H](N2CC[C@H](Nc3ncnc4ccc(C(F)(F)F)cc34)C2=O)[C@H](NC(=O)c2cccc(NCCOCCOCCOCCOCCNC(=O)[C@H]3CC(=O)N(C)[C@@H]3c3cccnc3)n2)C1 [Example 123, N-((1R,2S,5R)-5-(Isopropyl(methyl)amino)-2-((S)-2-oxo-3-((6-(trifluoromethyl)quinazolin-4-yl)amino)pyrrolidin-1-yl)cyclohexyl)-6-((1-((2S,3S)-1-methyl-5-oxo-2-(pyridin-3-yl)pyrrolidin-3-yl)-1-oxo-5,8,11,14-tetraoxa-2-azahexadecan-16-yl)amino)picolinamide]	15.8
CC(C)N(C)[C@@H]1CC[C@H](N2CC[C@H](Nc3ncnc4ccc(C(F)(F)F)cc34)C2=O)[C@H](NC(=O)c2cccc(NCCOCCOCCOCCOCCOCCNC(=O)[C@H]3CC(=O)N(C)[C@@H]3c3cccnc3)n2)C1 [Example 124, N-((1R,2S,5R)-5-(Isopropyl(methyl)amino)-2-((S)-2-oxo-3-((6-(trifluoromethyl)quinazolin-4-yl)amino)pyrrolidin-1-yl)cyclohexyl)-6-((1-((2S,3S)-1-methyl-5-oxo-2-(pyridin-3-yl)pyrrolidin-3-yl)-1-oxo-5,8, 11, 14, 17-pentaoxa-2-azanonadecan-19-yl)amino)picolinamide]	100000
CC(C)N(C)[C@@H]1CC[C@H](N2CC[C@H](Nc3ncnc4ccc(C(F)(F)F)cc34)C2=O)[C@H](NC(=O)c2ccc(NCCOCCOCCOCCOCCNC(=O)[C@H]3CC(=O)N(C)[C@@H]3c3cccnc3)nn2)C1 [Example 125, N-((1R,2S,5R)-5-(Isopropyl(methyl)amino)-2-((S)-2-oxo-3-((6-(trifluoromethyl)quinazolin-4-yl)amino)pyrrolidin-1-yl)cyclohexyl)-6-((1-((2S,3S)-1-methyl-5-oxo-2-(pyridin-3-yl)pyrrolidin-3-yl)-1-oxo-5,8,11,14-tetraoxa-2-azahexadecan-16-yl)amino) pyridazine-3-carboxamide]	15.8
CC(C)N(C)[C@@H]1CC[C@H](N2CC[C@H](Nc3ncnc4ccc(C(F)(F)F)cc34)C2=O)[C@H](NC(=O)c2ccnc(NCCOCCOCCOCCOCCNC(=O)[C@H]3CC(=O)N(C)[C@@H]3c3cccnc3)c2)C1 [Example 126, N-((1R,2S,5R)-5-(Isopropyl(methyl)amino)-2-((S)-2-oxo-3-((6-(trifluoromethyl)quinazolin-4-yl)amino)pyrrolidin-1-yl)cyclohexyl)-2-((1-((2S,3S)-1-methyl-5-oxo-2-(pyridin-3-yl)pyrrolidin-3-yl)-1-oxo-5,8,11,14-tetraoxa-2-azahexadecan-16-yl)amino)isonicotinamide, 3Trifluoroacetic acid salt]	2.51
CC(C)N(C)[C@@H]1CC[C@H](N2CC[C@H](Nc3ncnc4ccc(C(F)(F)F)cc34)C2=O)[C@H](NC(=O)c2cc(NCCOCCOCCOCCOCCNC(=O)[C@H]3CC(=O)N(C)[C@@H]3c3cccnc3)ncn2)C1 [Example 127, N-((1R,2S,5R)-5-(Isopropyl(methyl)amino)-2-((S)-2-oxo-3-((6-(trifluoromethyl)quinazolin-4-yl)amino)pyrrolidin-1-yl)cyclohexyl)-6-((1-((2S,3S)-1-methyl-5-oxo-2-(pyridin-3-yl)pyrrolidin-3-yl)-1-oxo-5,8,11, 14-tetraoxa-2-azahexadecan-16-yl)amino) pyrimidine-4-carboxamide]	2
CC(C)N(C)[C@@H]1CC[C@H](N2CC[C@H](Nc3ncnc4ccc(C(F)(F)F)cc34)C2=O)[C@H](NC(=O)c2ccc(NCCOCCOCCOCCOCCNC(=O)[C@H]3CC(=O)N(C)[C@@H]3c3cccnc3)nc2)C1 [Example 128, N-((1R,2S,5R)-5-(Isopropyl(methyl)amino)-2-((S)-2-oxo-3-((6-(trifluoromethyl)quinazolin-4-yl)amino)pyrrolidin-1-yl)cyclohexyl)-6-((1-((2S,3S)-1-methyl-5-oxo-2-(pyridin-3-yl)pyrrolidin-3-yl)-1-oxo-5,8,11, 14-tetraoxa-2-azahexadecan-16-yl)amino) nicotinamide]	1.58
